Data on 12 molecules can be found in ChEMBL document CHEMBL4340534 (Bioorg Med Chem Lett, 2019).

Data set [1] concerns Escherichia coli. Put plainly: Antibacterial activity against tolC deficient Escherichia coli Top10. In kind it is functional.
A further data set relates to Acinetobacter baumannii. Put plainly: Antibacterial activity against Acinetobacter baumannii BM4454. In kind it is functional.
In a further data set the target is DNA gyrase (Escherichia coli, UniProt P0AES4+P0AES6). As to the kind of experiment: Inhibition of Escherichia coli his-tagged DNA gyrase supercoiling activity using pBR322 DNA in presence of ATP incubated for 1 hr by H19 dye based high throughput DNA gyrase assay. In kind it is protein-complex assay.
In data set [2] the test system is Escherichia coli. As to the kind of experiment: Antibacterial activity against tolC deficient Escherichia coli Top10 harboring GyrB E793K mutant. It counts as functional.
Data set [3] concerns Escherichia coli. As to the kind of experiment: Antibacterial activity against Escherichia coli 7623. It counts as functional.
Data set [4] relates to Escherichia coli. Put plainly: Antibacterial activity against tolC deficient Escherichia coli 7623. It counts as functional.
Another data set concerns Klebsiella pneumoniae. Put plainly: Antibacterial activity against Klebsiella pneumoniae 1161486. It counts as functional.
Data set [5] has as its target Sodium channel protein type 5 subunit alpha (Homo sapiens, UniProt Q14524). Put plainly: Inhibition of human NaV1.5 expressed in HEK293 cells assessed as decrease in sodium current amplitude at -120 mV holding potential by Qpatch assay. It counts as ADME, cell-based. In general terms: Patch clamp records ionic current or voltage across a cell membrane.
The nature of data set [6]: Cytotoxicity against mouse L5178Y cells (TK +/-) assessed as reduction in cell viability incubated for 72 hrs by Cell Titer-Glo assay. Background: In ATP-based viability assays light output follows the ATP content of the culture.
Another data set concerns Pseudomonas aeruginosa. As to the kind of experiment: Antibacterial activity against Pseudomonas aeruginosa. In kind it is functional.
The nature of data set [7]: Inhibition of Escherichia coli DNA topoisomerase 4 using interlinked kDNA as substrate after 30 mins by ethidium bromide staining-based agarose gel electrophoresis method.
The target in data set [8] is DNA gyrase (Klebsiella pneumoniae) (UniProt W1DID1+A0A080SQT2). As to the kind of experiment: Inhibition of Klebsiella pneumoniae DNA gyrase assessed as increase in single and double strand DNA cleavage products. In kind it is protein-complex assay.
Data set [9] relates to Escherichia coli. Put plainly: Inhibition of Escherichia coli DNA topoisomerase 4 assessed as induction of enzyme-mediated DNA cleavage breaks.
Data set [10] has as its target DNA topoisomerase 2-alpha (Homo sapiens, UniProt P11388). Put plainly: Inhibition of human DNA topoisomerase 2 alpha using interlinked kDNA as substrate after 30 mins by ethidium bromide staining-based agarose gel electrophoresis method.

In general, MIC refers to the lowest concentration found to suppress growth. A lower MIC goes with a more susceptible organism. Usually IC50 stands for the concentration that gives 50% inhibition. As a reminder, the CC50 is the concentration giving 50% cytotoxicity.

Molecules are shown by their SMILES. In brackets after ≈: the same amount, converted by molar mass. Activity calls are given as the source filed them. The calls are words filed in the database; no cut-off is given here. A value given as a limit tells only on which side of the number the result lay.

Sequence of Sodium channel protein type 5 subunit alpha (Q14524 whole entry): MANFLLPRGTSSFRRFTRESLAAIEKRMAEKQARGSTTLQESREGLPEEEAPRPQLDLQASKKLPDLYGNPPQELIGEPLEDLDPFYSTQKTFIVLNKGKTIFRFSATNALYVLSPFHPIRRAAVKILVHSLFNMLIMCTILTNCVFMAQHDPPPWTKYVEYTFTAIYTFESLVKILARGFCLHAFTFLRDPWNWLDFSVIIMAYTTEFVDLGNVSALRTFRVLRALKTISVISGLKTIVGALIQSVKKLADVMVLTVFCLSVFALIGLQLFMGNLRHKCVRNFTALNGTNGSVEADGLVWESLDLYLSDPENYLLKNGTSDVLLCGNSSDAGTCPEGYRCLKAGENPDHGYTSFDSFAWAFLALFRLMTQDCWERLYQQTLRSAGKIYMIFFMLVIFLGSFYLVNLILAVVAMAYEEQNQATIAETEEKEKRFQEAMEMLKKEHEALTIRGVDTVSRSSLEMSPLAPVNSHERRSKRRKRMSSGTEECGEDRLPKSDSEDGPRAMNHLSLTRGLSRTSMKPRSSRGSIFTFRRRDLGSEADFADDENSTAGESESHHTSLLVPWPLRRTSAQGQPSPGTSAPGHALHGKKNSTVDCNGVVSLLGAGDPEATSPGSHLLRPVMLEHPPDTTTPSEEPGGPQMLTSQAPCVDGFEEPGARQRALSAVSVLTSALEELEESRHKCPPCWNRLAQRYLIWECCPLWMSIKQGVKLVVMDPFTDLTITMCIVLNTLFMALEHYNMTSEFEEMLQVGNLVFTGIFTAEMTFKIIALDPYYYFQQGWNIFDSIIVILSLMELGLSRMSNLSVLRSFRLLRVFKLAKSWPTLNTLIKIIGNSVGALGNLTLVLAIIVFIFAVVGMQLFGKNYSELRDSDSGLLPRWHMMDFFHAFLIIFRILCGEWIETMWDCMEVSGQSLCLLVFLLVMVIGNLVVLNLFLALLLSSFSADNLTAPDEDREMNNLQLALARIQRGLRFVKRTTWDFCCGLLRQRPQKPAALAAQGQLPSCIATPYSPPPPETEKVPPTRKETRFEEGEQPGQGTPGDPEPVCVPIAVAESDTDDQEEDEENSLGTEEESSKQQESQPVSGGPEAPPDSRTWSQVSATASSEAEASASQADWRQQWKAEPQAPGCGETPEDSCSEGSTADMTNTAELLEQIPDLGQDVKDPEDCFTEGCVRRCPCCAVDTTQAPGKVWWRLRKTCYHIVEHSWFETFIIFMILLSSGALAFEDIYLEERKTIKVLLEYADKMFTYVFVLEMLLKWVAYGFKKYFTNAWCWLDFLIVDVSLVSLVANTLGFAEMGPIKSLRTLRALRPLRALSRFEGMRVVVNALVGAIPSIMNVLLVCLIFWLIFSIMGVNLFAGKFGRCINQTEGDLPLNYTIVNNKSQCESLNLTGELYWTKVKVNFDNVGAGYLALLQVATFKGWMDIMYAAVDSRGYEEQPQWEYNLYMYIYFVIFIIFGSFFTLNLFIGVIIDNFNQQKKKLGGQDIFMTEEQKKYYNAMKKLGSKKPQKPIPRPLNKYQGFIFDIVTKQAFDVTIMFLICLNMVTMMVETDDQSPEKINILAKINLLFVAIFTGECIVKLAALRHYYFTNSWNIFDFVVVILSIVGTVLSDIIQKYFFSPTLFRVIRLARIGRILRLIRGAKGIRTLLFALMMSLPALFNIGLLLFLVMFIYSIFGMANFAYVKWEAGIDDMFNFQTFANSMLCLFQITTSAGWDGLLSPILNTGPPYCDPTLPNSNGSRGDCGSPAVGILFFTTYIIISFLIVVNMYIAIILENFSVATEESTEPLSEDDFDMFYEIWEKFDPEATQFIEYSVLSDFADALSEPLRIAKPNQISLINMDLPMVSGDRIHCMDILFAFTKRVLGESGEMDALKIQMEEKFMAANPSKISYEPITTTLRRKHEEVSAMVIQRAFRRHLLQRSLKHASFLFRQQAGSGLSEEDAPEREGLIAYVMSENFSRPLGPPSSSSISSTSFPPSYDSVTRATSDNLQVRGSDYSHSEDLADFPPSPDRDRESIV
Sequence of DNA topoisomerase 2-alpha (P11388 whole entry): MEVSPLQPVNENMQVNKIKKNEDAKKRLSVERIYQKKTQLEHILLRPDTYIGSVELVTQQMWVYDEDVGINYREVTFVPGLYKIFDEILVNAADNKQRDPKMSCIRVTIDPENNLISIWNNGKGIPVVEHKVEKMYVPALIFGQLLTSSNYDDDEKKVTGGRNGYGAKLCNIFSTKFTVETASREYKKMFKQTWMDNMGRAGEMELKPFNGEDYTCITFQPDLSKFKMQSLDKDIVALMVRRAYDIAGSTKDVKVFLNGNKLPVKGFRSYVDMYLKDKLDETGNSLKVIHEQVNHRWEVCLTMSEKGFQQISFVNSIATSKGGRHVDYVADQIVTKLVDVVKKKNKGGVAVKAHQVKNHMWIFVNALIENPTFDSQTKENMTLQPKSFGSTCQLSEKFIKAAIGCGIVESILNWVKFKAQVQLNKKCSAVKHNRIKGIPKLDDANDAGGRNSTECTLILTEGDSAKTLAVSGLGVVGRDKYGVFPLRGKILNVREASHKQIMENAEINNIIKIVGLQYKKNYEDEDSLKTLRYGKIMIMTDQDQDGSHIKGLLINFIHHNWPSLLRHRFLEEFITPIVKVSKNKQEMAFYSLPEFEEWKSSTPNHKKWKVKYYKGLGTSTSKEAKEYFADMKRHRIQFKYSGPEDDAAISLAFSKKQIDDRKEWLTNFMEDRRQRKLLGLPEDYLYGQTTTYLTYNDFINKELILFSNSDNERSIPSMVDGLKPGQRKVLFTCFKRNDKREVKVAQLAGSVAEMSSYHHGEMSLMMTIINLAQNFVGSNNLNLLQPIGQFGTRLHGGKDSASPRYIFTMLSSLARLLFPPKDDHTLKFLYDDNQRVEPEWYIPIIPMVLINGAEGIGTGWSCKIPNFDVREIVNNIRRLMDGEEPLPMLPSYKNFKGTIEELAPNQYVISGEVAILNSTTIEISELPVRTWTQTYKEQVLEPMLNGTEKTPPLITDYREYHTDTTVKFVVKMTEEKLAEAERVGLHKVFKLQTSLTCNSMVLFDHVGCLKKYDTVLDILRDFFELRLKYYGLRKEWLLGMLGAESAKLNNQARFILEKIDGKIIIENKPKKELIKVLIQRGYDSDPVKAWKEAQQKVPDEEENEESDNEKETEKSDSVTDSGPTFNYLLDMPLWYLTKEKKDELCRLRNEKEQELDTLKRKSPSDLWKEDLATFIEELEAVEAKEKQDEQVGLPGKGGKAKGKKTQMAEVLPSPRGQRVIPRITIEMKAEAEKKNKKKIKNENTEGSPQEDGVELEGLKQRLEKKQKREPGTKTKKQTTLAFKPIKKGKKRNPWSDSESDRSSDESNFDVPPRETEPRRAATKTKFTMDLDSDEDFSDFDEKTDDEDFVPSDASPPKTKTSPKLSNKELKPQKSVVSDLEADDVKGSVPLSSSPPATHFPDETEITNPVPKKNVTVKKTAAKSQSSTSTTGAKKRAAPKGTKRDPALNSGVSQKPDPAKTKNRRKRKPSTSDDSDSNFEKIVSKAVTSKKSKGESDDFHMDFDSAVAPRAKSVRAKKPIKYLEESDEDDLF

On to `Cc1sc(-c2ccccc2Cl)cc1C(=O)N[C@@H](CN)c1ccccc1`, for which the MIC against Escherichia coli [1] is no more than 0.125 µg/mL; against Acinetobacter baumannii it was 4 µg/mL (≈ 10.8 µM); in the data set on Escherichia coli [2] it was 4 µg/mL (≈ 10.8 µM); against Escherichia coli [3] it was 8 µg/mL (≈ 21.6 µM); in the data set on Escherichia coli [4] it was no more than 0.125 µg/mL; with Klebsiella pneumoniae, 32 µg/mL (≈ 86.3 µM). Further, the IC50 at DNA gyrase turned out to be 0.04 µM; in data set [5], 13 µM. Besides, the CC50 at 72 h in data set [6] (l5178y) was found to be 5 µg/mL (≈ 13.5 µM).
Take `NC[C@H](Oc1noc2ncc(-c3ccccc3Cl)cc12)c1ccccc1`: the MIC was found to be 1 µg/mL (≈ 2.73 µM) in the data set on Escherichia coli [1]; 64 µg/mL (≈ 175 µM) against Acinetobacter baumannii; 16 µg/mL (≈ 43.7 µM) against Escherichia coli [2]; 64 µg/mL (≈ 175 µM) in the data set with Escherichia coli [3]; 1 µg/mL (≈ 2.73 µM) against Escherichia coli [4]. The IC50 on DNA gyrase is 0.5 µM; in data set [5], 24 µM. The CC50 at 72 h in [6] (L5178Y cells (TK +/-)) was 20 µg/mL (≈ 54.7 µM).
`NCC(Nc1n[nH]c2ccc(-c3ccccc3Cl)cc12)c1ccccc1` (configuration not stated): the MIC with Escherichia coli [1] was found to be 4 µg/mL (≈ 11 µM); with Acinetobacter baumannii, 64 µg/mL (≈ 176 µM); with Escherichia coli [2], 4 µg/mL (≈ 11 µM); against Escherichia coli [3], 128 µg/mL (≈ 353 µM); against Escherichia coli [4] it was 4 µg/mL (≈ 11 µM); in the data set on Klebsiella pneumoniae it was 64 µg/mL (≈ 176 µM). The IC50 at DNA gyrase amounted to 3.2 µM. In [6] (L5178Y cells (TK +/-)), the CC50 at 72 h was found to be 5 µg/mL (≈ 13.8 µM).
Regarding `NC[C@H](Nc1nccc2ccc(-c3ccccc3Cl)cc12)c1ccccc1`, the MIC against Escherichia coli [1] amounted to 2 µg/mL (≈ 5.35 µM); with Acinetobacter baumannii, 32 µg/mL (≈ 85.6 µM); with Escherichia coli [2], 2 µg/mL (≈ 5.35 µM); with Escherichia coli [3], 64 µg/mL (≈ 171 µM); in the data set on Escherichia coli [4] it was 2 µg/mL (≈ 5.35 µM); against Klebsiella pneumoniae, 32 µg/mL (≈ 85.6 µM). Moreover, the IC50 on DNA gyrase came out at 10 µM. The CC50 at 72 h in data set [6] (L5178Y cells (TK +/-)) was determined as 3 µg/mL (≈ 8.02 µM).
On to `N=C(N)NC[C@H](Oc1noc2ccc(-c3ccccc3Cl)cc12)c1ccccc1`, for which the MIC in the data set on Pseudomonas aeruginosa was found to be 16 µg/mL (≈ 39.3 µM); in the data set with Escherichia coli [1], 0.25 µg/mL (≈ 0.614 µM); against Acinetobacter baumannii, 4 µg/mL (≈ 9.83 µM); against Escherichia coli [2] it was 0.5 µg/mL (≈ 1.23 µM); in the data set on Escherichia coli [3], 8 µg/mL (≈ 19.7 µM); against Escherichia coli [4] it was 0.25 µg/mL (≈ 0.614 µM). Also, the lowest concentration to inhibit growth with Klebsiella pneumoniae (MIC) was 16 µg/mL (≈ 39.3 µM). Moreover, the 50% inhibitory concentration (IC50) on DNA gyrase turned out to be 0.16 µM. Besides, the 50% cytotoxic concentration (CC50) at 72 h in data set [6] (l5178y) is 11 µg/mL (≈ 27 µM).
Regarding `NC[C@H](Oc1noc2ccc(-c3ccccc3Cl)nc12)c1ccccc1`, the MIC with Escherichia coli [1] is 8 µg/mL (≈ 21.9 µM); in the data set with Acinetobacter baumannii, greater than 128 µg/mL; with Escherichia coli [2] it was 16 µg/mL (≈ 43.7 µM); in the data set with Escherichia coli [3], greater than 128 µg/mL; with Escherichia coli [4], 4 µg/mL (≈ 10.9 µM). Besides, the half-inhibitory concentration (IC50) at DNA gyrase is 1.6 µM; in data set [5] it was 16 µM. Moreover, the CC50 at 72 h in [6] (l5178y) came out at 5 µg/mL (≈ 13.7 µM).
Turning to `Cn1nc(NC(CN)c2ccccc2)c2cc(-c3ccccc3Cl)ccc21` (configuration not stated), the MIC against Escherichia coli [1] is 4 µg/mL (≈ 10.6 µM); in the data set on Acinetobacter baumannii, 128 µg/mL (≈ 340 µM); against Escherichia coli [2], 4 µg/mL (≈ 10.6 µM); against Escherichia coli [3], greater than 128 µg/mL; in the data set with Escherichia coli [4], 4 µg/mL (≈ 10.6 µM); with Klebsiella pneumoniae, greater than 128 µg/mL. In addition, the IC50 at DNA gyrase was 7.9 µM. Besides, the CC50 at 72 h in [6] (L5178Y cells (TK +/-)) turned out to be 5 µg/mL (≈ 13.3 µM).
On to `Cn1nc(O[C@@H](CN)c2ccccc2)c2cc(-c3ccccc3Cl)ccc21`, for which the MIC against Escherichia coli [1] was 2 µg/mL (≈ 5.29 µM); in the data set on Acinetobacter baumannii, 64 µg/mL (≈ 169 µM); against Escherichia coli [2] it was 2 µg/mL (≈ 5.29 µM); with Escherichia coli [3], greater than 128 µg/mL; against Escherichia coli [4] it was 2 µg/mL (≈ 5.29 µM); against Klebsiella pneumoniae, greater than 128 µg/mL. Further, the IC50 at DNA gyrase was 5 µM.
For `NCC(Oc1noc2ccc(-c3ccccc3Cl)cc12)c1ccccn1` (configuration not stated), the MIC in the data set on Escherichia coli [1] is 0.25 µg/mL (≈ 0.683 µM); against Acinetobacter baumannii it was 32 µg/mL (≈ 87.5 µM); in the data set on Escherichia coli [2], 8 µg/mL (≈ 21.9 µM); in the data set on Escherichia coli [3] it was 64 µg/mL (≈ 175 µM); with Escherichia coli [4], 0.25 µg/mL (≈ 0.683 µM). Besides, the IC50 at DNA gyrase is 0.5 µM. Also, the CC50 at 72 h in [6] (L5178Y cells (TK +/-)) was determined as 3 µg/mL (≈ 8.2 µM).
In the case of `NC[C@H](Oc1noc2ccc(-c3ccccc3Cl)cc12)c1ccccc1`, the MIC against Pseudomonas aeruginosa is no less than 128 µg/mL; with Escherichia coli [1] it was no more than 0.125 µg/mL; in the data set on Acinetobacter baumannii, 8 µg/mL (≈ 21.9 µM); against Escherichia coli [2] it was 2 µg/mL (≈ 5.48 µM); with Escherichia coli [3], 8 to 16 µg/mL (≈ 21.9 to 43.9 µM); in the data set with Escherichia coli [4], no more than 0.125 µg/mL. The MIC in the data set with Klebsiella pneumoniae was no less than 128 µg/mL. The IC50 in data set [7] was 90 µM; at DNA gyrase, 0.16 µM; in [5] it was 22 µM; in [10], 210 µM. The inhibition result (in data set [8]; in the data set on Escherichia coli [9]) was “Active” in each case. In data set [6] (l5178y), the CC50 at 72 h is 10 µg/mL (≈ 27.4 µM).
As to `NC[C@H](Oc1n[nH]c2ccc(-c3ccccc3Cl)cc12)c1ccccc1`, the minimal inhibitory concentration (MIC) with Escherichia coli [1] was determined as 2 µg/mL (≈ 5.5 µM); against Acinetobacter baumannii, 32 µg/mL (≈ 87.9 µM); against Escherichia coli [2] it was 2 µg/mL (≈ 5.5 µM); against Escherichia coli [3] it was 32 µg/mL (≈ 87.9 µM); against Escherichia coli [4] it was 2 µg/mL (≈ 5.5 µM); with Klebsiella pneumoniae, 32 µg/mL (≈ 87.9 µM). Also, the IC50 at DNA gyrase turned out to be 1.6 µM. In addition, in data set [6] (L5178Y cells (TK +/-)), the CC50 at 72 h was determined as 3 µg/mL (≈ 8.25 µM).
As to `NC[C@@H](c1ccccc1)n1cnc2c(-c3ccccc3Cl)csc2c1=O`, the MIC against Escherichia coli [1] was 2 µg/mL (≈ 5.24 µM); against Acinetobacter baumannii, greater than 128 µg/mL; against Escherichia coli [2], 16 µg/mL (≈ 41.9 µM); against Escherichia coli [3] it was greater than 128 µg/mL; against Escherichia coli [4], 2 to 4 µg/mL (≈ 5.24 to 10.5 µM); against Klebsiella pneumoniae it was greater than 128 µg/mL. Moreover, the IC50 on DNA gyrase was 2 µM. Besides, the CC50 at 72 h in data set [6] (L5178Y cells (TK +/-)) was found to be 16 µg/mL (≈ 41.9 µM).
